In patent publication US20200239530A1, “COMPOUNDS AND METHODS OF MODULATING PROTEIN DEGRADATION” (Vividion Therapeutics, Inc., priority 2017, published 2020):
One block for each compound: values may come before it.

Assays:
Assay type in all cases: binding
[1] = target: T1, Q969K4 (Homo sapiens, UniProt Q969K4); test: Competitive cysteine profiling, probe competition (Table 2B); settings: read-out: KB05_100 uM_percent_inhibition
T1 construct: Cells were resuspended in cold PBS on ice and sonicated with a probe sonicator to achieve lysis; endogenous in cells
Description: (§1) The following 96-well sample prep protocol was used for sample preparation.

[2] = target: T2, Q96Q27 (Homo sapiens, UniProt Q96Q27); test: as above; settings: read-out: KB05_100 uM_percent_inhibition
T2 construct: endogenous in cells
Description: as §1

[3] = target: T3, A6QL63 (Homo sapiens, UniProt A6QL63); test: as above; settings: read-out: KB02_100 uM_percent_inhibition
T3 construct: 200 μL of lysate containing 5 mg/ml proteome was treated with 2 μL of 100× compound stock; endogenous in cells
Description: as §1

[4] = target: T4, Q8N961 (Homo sapiens, UniProt Q8N961); test: as above
T4 construct: Cells were resuspended in cold PBS on ice and sonicated with a probe sonicator to achieve lysis; endogenous in cells
Description: as §1

[5] = target: T5, Q9NR09 (Homo sapiens, UniProt Q9NR09); test: as above; settings: 100 uM
T5 construct: endogenous in cells
Description: as §1

[6] = target: T6, UniProt Q9H000 (Homo sapiens, UniProt Q9H000); test: Cysteine liganding, probe competition; settings: 100 uM
T6 construct: Cells were resuspended in cold PBS on ice and sonicated with a probe sonicator to achieve lysis; endogenous in cells
Description: as §1

[7] = target: T7, cysteine residue illustrated in Table 1A or Table 2A (Homo sapiens, UniProt O76080); test: Competitive cysteine profiling of cell lysate with desthiobiotin iodoacetamide probe (96-well sample prep); settings: UniProt O76080; KB03 100 uM
T7 construct: Cells were resuspended in cold PBS on ice and sonicated with a probe sonicator to achieve lysis; endogenous in cells
How it was run: (§2)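 Competitive profiling: compound and lysate (5 mg/ml protein) incubated 1 h at 25 °C before a 1 h, 25 °C desthiobiotin iodoacetamide probe step. Proteins were acetone-precipitated, reduced, alkylated and trypsinized; streptavidin-captured labelled peptides were eluted for MS analysis.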

[8] = target: T8, cysteine residue illustrated in Table 1A or Table 2A (Homo sapiens, UniProt Q13617); test: as above; settings: UniProt Q13617; 100 uM
T8 construct: Cells were resuspended in cold PBS on ice and sonicated with a probe sonicator to achieve lysis; endogenous in cells
How it was run: as §2

[9] = target: T9, cysteine residue illustrated in Table 1A or Table 2A (Homo sapiens, UniProt Q6FIF0); test: as above; settings: UniProt Q6FIF0; KB03 100 uM
T9 construct: Cells were resuspended in cold PBS on ice and sonicated with a probe sonicator to achieve lysis; endogenous in cells
How it was run: as §2

[10] = target: T10, Q9Y576 (Homo sapiens, UniProt Q9Y576); test: Competitive cysteine profiling, probe competition (Table 2B); settings: 100 uM
T10 construct: endogenous in cells
Description: as §1

T4 sequence (Q8N961 whole entry): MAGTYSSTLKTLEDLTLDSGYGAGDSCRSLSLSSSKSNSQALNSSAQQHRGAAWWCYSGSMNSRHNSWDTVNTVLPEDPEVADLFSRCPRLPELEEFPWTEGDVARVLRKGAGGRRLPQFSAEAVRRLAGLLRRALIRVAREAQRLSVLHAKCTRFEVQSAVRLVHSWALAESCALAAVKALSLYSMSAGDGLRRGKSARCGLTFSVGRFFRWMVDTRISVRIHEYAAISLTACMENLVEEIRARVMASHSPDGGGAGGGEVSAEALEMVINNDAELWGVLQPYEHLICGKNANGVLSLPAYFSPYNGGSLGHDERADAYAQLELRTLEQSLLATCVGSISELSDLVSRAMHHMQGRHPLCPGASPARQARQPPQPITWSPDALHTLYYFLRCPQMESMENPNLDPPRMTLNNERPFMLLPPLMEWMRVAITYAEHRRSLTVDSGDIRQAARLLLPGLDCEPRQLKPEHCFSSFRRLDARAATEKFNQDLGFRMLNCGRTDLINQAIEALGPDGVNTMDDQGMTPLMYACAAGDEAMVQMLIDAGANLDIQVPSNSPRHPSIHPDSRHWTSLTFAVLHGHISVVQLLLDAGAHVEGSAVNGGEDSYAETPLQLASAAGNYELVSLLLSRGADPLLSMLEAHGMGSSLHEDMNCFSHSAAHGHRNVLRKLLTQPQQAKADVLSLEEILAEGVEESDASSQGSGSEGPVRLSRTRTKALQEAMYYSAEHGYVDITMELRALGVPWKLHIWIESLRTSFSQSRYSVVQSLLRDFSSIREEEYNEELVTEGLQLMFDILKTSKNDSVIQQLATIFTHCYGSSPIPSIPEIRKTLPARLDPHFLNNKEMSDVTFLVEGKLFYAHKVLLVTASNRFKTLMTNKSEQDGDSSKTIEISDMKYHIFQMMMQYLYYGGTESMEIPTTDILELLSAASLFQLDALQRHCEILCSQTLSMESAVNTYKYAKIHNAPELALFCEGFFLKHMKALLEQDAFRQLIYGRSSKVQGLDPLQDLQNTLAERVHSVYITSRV
T8 sequence (Q13617 whole entry): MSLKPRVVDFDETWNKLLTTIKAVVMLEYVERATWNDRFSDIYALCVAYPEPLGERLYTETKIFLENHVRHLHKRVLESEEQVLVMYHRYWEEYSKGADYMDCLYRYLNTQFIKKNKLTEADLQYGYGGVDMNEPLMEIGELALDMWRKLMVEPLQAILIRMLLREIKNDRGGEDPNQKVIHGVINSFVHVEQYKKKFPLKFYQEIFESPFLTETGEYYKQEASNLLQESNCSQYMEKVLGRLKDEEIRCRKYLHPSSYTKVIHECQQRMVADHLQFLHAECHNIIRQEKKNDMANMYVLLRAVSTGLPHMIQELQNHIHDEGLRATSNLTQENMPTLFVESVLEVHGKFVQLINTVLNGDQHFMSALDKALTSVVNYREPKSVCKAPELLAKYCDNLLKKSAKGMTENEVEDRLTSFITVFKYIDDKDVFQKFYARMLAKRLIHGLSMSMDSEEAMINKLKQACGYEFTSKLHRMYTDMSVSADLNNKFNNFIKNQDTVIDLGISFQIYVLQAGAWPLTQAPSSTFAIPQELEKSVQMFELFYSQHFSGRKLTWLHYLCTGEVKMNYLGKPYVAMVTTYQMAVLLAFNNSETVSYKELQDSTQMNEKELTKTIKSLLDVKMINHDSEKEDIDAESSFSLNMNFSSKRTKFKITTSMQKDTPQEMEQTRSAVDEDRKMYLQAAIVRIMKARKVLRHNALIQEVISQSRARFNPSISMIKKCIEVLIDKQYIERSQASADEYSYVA
T1 sequence (Q969K4 whole entry): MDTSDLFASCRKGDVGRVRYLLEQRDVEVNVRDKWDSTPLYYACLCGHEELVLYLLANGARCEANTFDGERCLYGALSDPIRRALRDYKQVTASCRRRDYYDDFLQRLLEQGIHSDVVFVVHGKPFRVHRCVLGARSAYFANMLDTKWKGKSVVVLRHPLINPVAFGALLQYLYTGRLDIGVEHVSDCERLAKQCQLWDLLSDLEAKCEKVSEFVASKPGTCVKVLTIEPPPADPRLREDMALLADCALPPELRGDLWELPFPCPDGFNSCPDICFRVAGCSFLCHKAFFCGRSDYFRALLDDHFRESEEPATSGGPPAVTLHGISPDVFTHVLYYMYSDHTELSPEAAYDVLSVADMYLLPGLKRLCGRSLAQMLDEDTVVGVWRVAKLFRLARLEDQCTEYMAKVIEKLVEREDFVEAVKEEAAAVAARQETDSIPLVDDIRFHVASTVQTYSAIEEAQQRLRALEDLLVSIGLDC
T2 sequence (Q96Q27 whole entry): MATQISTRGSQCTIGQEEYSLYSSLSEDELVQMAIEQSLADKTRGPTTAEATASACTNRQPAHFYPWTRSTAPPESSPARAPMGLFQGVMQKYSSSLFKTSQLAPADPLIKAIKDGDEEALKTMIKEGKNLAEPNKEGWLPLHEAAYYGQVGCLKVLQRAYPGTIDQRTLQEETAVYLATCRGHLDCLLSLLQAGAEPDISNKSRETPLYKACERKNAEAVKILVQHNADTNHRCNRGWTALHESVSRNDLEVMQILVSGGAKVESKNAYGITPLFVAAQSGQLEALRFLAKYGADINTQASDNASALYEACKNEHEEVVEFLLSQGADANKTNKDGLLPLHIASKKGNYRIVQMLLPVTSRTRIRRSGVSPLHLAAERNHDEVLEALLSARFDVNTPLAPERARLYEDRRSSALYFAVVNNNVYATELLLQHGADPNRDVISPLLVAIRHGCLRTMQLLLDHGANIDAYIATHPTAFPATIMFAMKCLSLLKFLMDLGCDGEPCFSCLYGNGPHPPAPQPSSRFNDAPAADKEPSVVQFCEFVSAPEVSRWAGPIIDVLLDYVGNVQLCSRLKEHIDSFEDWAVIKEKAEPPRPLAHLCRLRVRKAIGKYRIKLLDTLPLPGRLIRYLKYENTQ
T6 sequence (Q9H000 whole entry, change not shown): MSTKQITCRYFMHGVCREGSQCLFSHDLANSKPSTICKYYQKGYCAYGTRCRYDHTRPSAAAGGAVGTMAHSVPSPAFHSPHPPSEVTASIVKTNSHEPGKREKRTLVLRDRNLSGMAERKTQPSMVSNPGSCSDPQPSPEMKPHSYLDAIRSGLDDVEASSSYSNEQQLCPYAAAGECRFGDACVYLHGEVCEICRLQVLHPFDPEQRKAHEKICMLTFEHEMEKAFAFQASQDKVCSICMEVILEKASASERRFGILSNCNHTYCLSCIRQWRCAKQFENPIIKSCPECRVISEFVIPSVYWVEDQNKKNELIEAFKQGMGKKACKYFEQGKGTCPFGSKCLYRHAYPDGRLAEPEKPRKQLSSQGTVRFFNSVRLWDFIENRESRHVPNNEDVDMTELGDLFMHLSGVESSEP
T3 sequence (A6QL63 whole entry): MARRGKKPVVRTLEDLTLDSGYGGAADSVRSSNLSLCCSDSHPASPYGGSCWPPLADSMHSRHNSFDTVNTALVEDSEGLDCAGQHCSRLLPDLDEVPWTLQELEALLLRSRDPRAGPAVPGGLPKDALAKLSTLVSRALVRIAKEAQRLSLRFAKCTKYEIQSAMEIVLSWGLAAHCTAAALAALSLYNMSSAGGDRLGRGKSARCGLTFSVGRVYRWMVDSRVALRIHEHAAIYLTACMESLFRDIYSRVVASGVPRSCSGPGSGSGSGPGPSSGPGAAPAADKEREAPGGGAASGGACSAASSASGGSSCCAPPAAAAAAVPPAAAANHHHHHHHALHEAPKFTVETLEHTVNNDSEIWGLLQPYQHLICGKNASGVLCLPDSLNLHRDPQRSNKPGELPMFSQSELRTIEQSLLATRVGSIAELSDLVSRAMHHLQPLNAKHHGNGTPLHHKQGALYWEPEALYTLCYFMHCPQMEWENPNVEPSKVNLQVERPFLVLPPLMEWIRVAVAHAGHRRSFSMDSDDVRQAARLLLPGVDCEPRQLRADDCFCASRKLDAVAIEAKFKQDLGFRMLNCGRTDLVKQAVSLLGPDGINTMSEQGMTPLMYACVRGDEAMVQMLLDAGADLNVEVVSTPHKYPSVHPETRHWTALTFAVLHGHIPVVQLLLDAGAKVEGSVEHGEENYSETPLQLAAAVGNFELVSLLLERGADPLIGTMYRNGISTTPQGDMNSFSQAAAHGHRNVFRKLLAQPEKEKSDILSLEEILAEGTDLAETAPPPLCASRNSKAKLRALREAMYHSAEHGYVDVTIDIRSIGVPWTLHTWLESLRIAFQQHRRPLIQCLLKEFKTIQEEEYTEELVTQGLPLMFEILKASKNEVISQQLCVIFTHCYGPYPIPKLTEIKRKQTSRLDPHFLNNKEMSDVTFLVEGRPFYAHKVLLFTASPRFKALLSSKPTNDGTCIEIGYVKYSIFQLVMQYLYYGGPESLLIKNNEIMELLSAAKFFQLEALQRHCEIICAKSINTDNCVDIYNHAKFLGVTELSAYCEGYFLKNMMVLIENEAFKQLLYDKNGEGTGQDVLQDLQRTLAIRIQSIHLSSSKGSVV
T7 sequence (O76080 whole entry): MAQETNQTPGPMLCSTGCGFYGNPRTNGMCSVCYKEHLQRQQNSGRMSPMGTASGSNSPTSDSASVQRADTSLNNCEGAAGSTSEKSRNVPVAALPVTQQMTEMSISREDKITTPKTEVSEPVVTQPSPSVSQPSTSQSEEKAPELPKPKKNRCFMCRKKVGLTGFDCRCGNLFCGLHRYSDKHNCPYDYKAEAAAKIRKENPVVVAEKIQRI
T10 sequence (Q9Y576 whole entry): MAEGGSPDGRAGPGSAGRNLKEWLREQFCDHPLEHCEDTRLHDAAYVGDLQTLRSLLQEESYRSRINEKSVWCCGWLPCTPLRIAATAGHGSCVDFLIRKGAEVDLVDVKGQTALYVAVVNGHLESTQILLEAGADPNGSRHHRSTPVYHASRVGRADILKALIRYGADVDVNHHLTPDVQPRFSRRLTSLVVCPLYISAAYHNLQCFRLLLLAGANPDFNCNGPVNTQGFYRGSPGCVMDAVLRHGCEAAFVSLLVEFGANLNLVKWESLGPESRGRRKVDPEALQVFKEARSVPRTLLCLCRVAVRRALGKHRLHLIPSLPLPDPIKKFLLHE

inhibition at 100 µM [1]: 3% | inhibition at 100 µM [2]: 36%
Compound: C=CC(=O)N(c1ccccc1)c1ccc(Br)cc1 [KB05]

Compound: COc1ccc2c(c1)CCCN2C(=O)CCl [KB02]
inhibition at 100 µM [3]: 9% | KB02_100 uM_percent_inhibition ([4]; 100 uM): 60% | inhibition at 100 µM ([4]; read-out: KB02_100 uM_percent_inhibition): 52% | KB02_100 uM_percent_inhibition [5]: 24% | percent inhibition [6]: 24%

Compound: O=C(CCl)Nc1cc(C(F)(F)F)cc(C(F)(F)F)c1 [KBO3]
KB03_100 uM_percent_inhibition [7]: 14% | KB03_100 uM_percent_inhibition [8]: 30% | KB03_100 uM_percent_inhibition [9]: 8% | KB03_100 uM_percent_inhibition [10]: 51%
